Experimental data taken from patent US10307383B2, “Cosmetic composition for preventing or ameliorating hypersensitive skin comprising cedrol or derivatives thereof, or pharmaceutically acceptable salts thereof” (University of Seoul Industry Cooperation Foundation, priority 2017, dated 2019).
Values after ≈ are worked out from the molar mass of the structure shown.

System: IL-17A expression
Test: IL-17A inhibition assay in IL-17 luciferase-(LUCPorter) stable reporter cell line
Conditions: for Inhibition of IL-17A expression (%) Experiment-1 / Inhibition of IL-17A expression (%) Experiment-2 / Inhibition of IL-17A expression (%) Experiment-3: 6 hours; for expression of IL-17A (luciferase units): control group 2,582 units; for inhibition at 10 µg/mL / inhibition at 100 µg/mL / inhibition at 1000 µg/mL / IC50: Homo sapiens; for inhibition at 10 µg/mL / inhibition at 100 µg/mL / inhibition at 1000 µg/mL: read-out: Average Inhibition (%); for IC50: read-out: IC50 to inhibit the IL-17A expression by 50%

IC50 [µg/mL]	SMILES	expression of IL-17A, % by the control (10 μg/ml) [% by the control]	Inhibition of IL-17A expression (%) Experiment-1 (10 μg/ml) [%]	Inhibition of IL-17A expression (%) Experiment-2 (10 μg/ml) [%]	Inhibition of IL-17A expression (%) Experiment-3 (10 μg/ml) [%]	expression of IL-17A (luciferase units) (10 μg/ml)	expression of IL-17A, % by the control (100 μg/ml) [% by the control]	Inhibition of IL-17A expression (%) Experiment-1 (100 μg/ml) [%]	Inhibition of IL-17A expression (%) Experiment-2 (100 μg/ml) [%]	Inhibition of IL-17A expression (%) Experiment-3 (100 μg/ml) [%]	expression of IL-17A (luciferase units) (100 μg/ml)	expression of IL-17A, % by the control (1,000 μg/ml) [% by the control]	Inhibition of IL-17A expression (%) Experiment-1 (1000 μg/ml) [%]	Inhibition of IL-17A expression (%) Experiment-2 (1000 μg/ml) [%]	Inhibition of IL-17A expression (%) Experiment-3 (1000 μg/ml) [%]	expression of IL-17A (luciferase units) (1,000 μg/ml)	inhibition at 10 µg/mL [%]	inhibition at 100 µg/mL [%]	inhibition at 1000 µg/mL [%]
942 (≈ 4.27 mM)	C[C@@H]1CC[C@H]2C(C)(C)[C@H]3C[C@@]12CC1OC13C (stereo partly drawn) [cedrene epoxide, Cedrene epoxide]	100	11	4	0	2,591±458 units	88	14	16	12	2,267±806 units	54	60	56	46	1,382±87 units	5	14	54
1130 (≈ 4.78 mM)	CO[C@]1(C)CC[C@@]23C[C@@H]1C(C)(C)[C@@H]2CC[C@H]3C [methyl cedryl ether, Methyl cedryl ether]	96	−6	4	4	2,479±136 units	92	−5	5	8	2,379±206 units	74	48	18	26	1,921±239 units	0.7	2.7	30.7
841 (≈ 3.41 mM)	CC(=O)C1=C(C)[C@@H]2C[C@@]3(C1)[C@H](C)CC[C@H]3C2(C)C [methyl cedryl ketone, Methyl cedryl ketone]	87	0	1	13	2,248±194 units	75	12	15	25	1,930±111 units	34	78	58	66	866±106 units	4.7	17.3	67.3
